The text below walks through data of patent US20230391842A1, “RETRO-INVERSO PEPTIDES” (Herantis Pharma OYJ, priority 2019, published 2023).

Data set [1] has as its system dopaminergic TH-positive neurons injured with MPP+. Kind of data set: Neuroprotective effect on dopaminergic TH-positive neurons injured with MPP+ (primary mesencephalic culture). The format is cell-based, rat. The following applies: MPP+ 4 μM, 48 h; for potency of retro-inverso peptides relative to their parent compounds and to full-length CDNF protein: stated for 'most cases'. Here is the method:
Neuroprotective effects of compounds 1-20 (SEQ ID NO:s 1-20, parent and retro-inverso) were tested in an in vitro model in which primary cultures of rat embryonic mesencephalic neurons were stressed with MPP+, the active metabolite of neurotoxin 1-methyl-4-phenyl-1,2,3,6-tetrahydropyridine (MPTP). MPP+ kills dopaminergic (TH-positive) neurons via a variety of toxic mechanisms, including mitochondrial dysfunction, generation of peroxynitrite, oxidative stress, ER stress and induction of apoptosis.
Rat dopaminergic neurons were cultured as described by Visanji et al., 2008. Briefly, the midbrains obtained from 15-day-old rat embryos (Janvier, France) were dissected, and the ventral portion of the mesencephalic flexure, a region of the developing brain rich in dopaminergic neurons, was used for the cell preparations. The midbrain cells were dissociated by trypsinization for 20 min at 37° C. […] The reaction was stopped by adding Dulbecco's modified Eagle's medium (DMEM) containing DNAase I grade II (0.5 mg/mL) and 10% of fetal calf serum (FCS). Cells were then mechanically dissociated by 3 passages through a 10 ml pipette. Cells were then centrifuged at 180×g for 10 min at +4° C. on a layer of BSA (3.5%) in L15 medium. The cell pellets was re-suspended in a defined culture serum-free medium consisting of Neurobasal (Invitrogen) supplemented with B27 (2%), L-glutamine (2 mM) and 2% of PS solution and 10 ng/ml of Brain-derived neurotrophic factor (BDNF) and 1 ng/mL of Glial-Derived Neurotrophic Factor (GDNF). […] The cells were seeded at a density of 40 000 cells/well in 96 well-plates (pre-coated with poly-L-lysine) and maintained in a humidified incubator at 37° C. in 5% CO2/95% air atmosphere. Half of the medium was changed every 2 days with fresh medium. On 96-wells plates, only 60 wells are used. To avoid any edge effect, the first and last lines and columns were not be used for culture and were filled with sterile water.
On day 6 of culture, CDNF or the compounds 1-20 (SEQ ID NO:s 1-20, parent and retro-inverso), were dissolved in culture medium and then pre-incubated with mesencephalic neurons for 4 hours before the MPP+ application. Four hours after the preincubation of the compounds, MPP+ was added to a final concentration of 4 μM, diluted in control medium still in presence of compounds for 48 h.
48 hours after intoxication, the cells were fixed by a solution of 4% paraformaldehyde in PBS, pH 7.3 for 20 min at room temperature. The cells were washed twice in PBS, and then permeabilized and non-specific sites were blocked with a solution of PBS containing 0.1% of saponin and 1% FCS for 15 min at room temperature. Next, the cells were incubated with (a) a monoclonal antibody anti-Tyrosine Hydroxylase (TH) produced in mouse at dilution of 1:1 0000 and with (b) a polyclonal antibody anti-alpha-synuclein (aSyn) antibody produced in rabbit at dilution of 1:400 in PBS containing 1% FCS, 0.1% saponin, for 2 h at room temperature.
48 hours after intoxication, the cell culture supernatant was removed, and the cells fixed by a solution of 4% paraformaldehyde in PBS, pH 7.3 for 20 min at room temperature. The cells were washed twice in PBS, and then permeabilized and non-specific sites were blocked with a solution of PBS containing 0.1% of saponin and 1% FCS for 15 min at room temperature. Then, the cells were incubated with a) a monoclonal Anti-Tyrosine Hydroxylase (TH) antibody produced in mouse at dilution of 1:10000 in PBS containing 1% FCS, 0.1% saponin, for 2 hours at room temperature, and b) a polyclonal anti-postsynaptic density protein-95 (PSD-95) antibody produced in rabbit at dilution of 1:200 in PBS containing 1% FCS, 0.1% saponin, for 2 h at room temperature. This antibody stains specifically synapses.
For each condition, pictures representing the whole well area were automatically acquired using ImageXpress (Molecular device) at 10× (20 pictures, for TH and a-syn) or at 40× magnification (60 pictures, for TH and PSD-95). […]

In data set [2] the target is nucleotide-binding domain of GRP78 (GRP78-NBD). Kind of data set: Binding to GRP78-NBD Kd (μM). An excerpt:
Table printed on a drawing sheet, FIG. 5B
Head of the field: Binding to GRP78-NBD Kd (μM)
GRP78-NBD is shown in a to translucent surface model along with its cartoon trace. The Cys-Cys bond in compound 14 (SEQ ID NO: 14) is shown in sticks.
The binding affinities are obtained by microscale thermophoresis-based cell free assay.
GSK2606414 was used to inhibit PERK signaling and KIRA6 to inhibit IRE1alpha signaling. * p<0.05, ** p<0.01, *** p<0.001, **** p<0.0001 one-way ANOVA test with post-hoc Fisher's LSD test for pairwise comparison vs MPP+ negative control. #p<0.05, ##p<0.01, ###p<0.001, ####p<0.0001 one-way ANOVA test with post-hoc Fisher's LSD test for pairwise comparison between effect of compound alone and its combination with UPR signal inhibitor.
Where the first naming reader finds the target: head: Binding to GRP78-NBD Kd (μM)

Data set [3] can be described thus: In vitro metabolic stability in rat plasma. The format is in vitro ADME. The following applies: 1 μM, 37° C., up to 120 min. The method, then: Metabolic stability of the retro-inverso and native control peptides was studied using rat plasma over the time period of 120 min, with initial test concentration of 1 μM. Samples were analysed using LC/QE-orbitrap-MS. Calculated half-life is based on compound disappearance in rat plasma.
The incubation was terminated by acetonitrile. […] Stock solutions was prepared using 50% DMSO, and the compounds were spiked 1/100 to incubation to have final DMSO content of 0.5%. […] For analysis of compounds 13-14 and 19-20 stock solutions were prepared with PBS, and samples were analyzed by UHPLC-ToF mass spectrometry. Enalapril 1 μM was used as a disappearance rate control.

The nature of data set [4]: In vivo pharmacokinetics after intravenous administration to rats. The following applies: rat, 5 mg/kg intravenous bolus injection, male Sprague-Dawley rats, plasma; for clearance: read-out: CI. The method, then: Test compounds were intravenously (i.v.) administered to male Spraque-Dawley rats (about six weeks old, n=3 per compound) at 5 mg/kg. Blood samples were collected from jugular vein through implanted in-dwelling catheters (250 μl blood) into labelled polypropylene tubes containing anticoagulant (heparin) at 2 min, 5 min, 15 min, 30 min, 1 h, 2 h and 4 h after compound administration and held on wet ice for a maximum of 30 minutes. The blood samples were centrifuged for plasma separation (4° C., 21100 G, 5 min). Tolbutamide 500 ng/ml with 10% TFA in acetonitrile or in MeCN was used as an internal standard solution. The standard samples were prepared into rat plasma by spiking the matrix into concentrations 2-10 000 ng/ml of the analyte, respectively, and otherwise treated as the samples. To 50 μl aliquots of sample plasma was added 200 μl of internal standard. Samples were mixed (150 rpm, 15 min) and centrifugated (3000 rpm, 15 min). The analytical method was optimized for reaction monitoring chromatographic (peak shape & retention) shifts and mass spectrometric properties (ionization efficiency, MS/MS detection). Supernatants were is analyzed by UHPLC-TOF mass spectrometry using electrospray ionization. […]

In a further data set the test system is rat hepatocytes. Kind of data set: In vitro metabolic stability in rat hepatocytes. The following applies: 1 μM, 37° C., 0-60 min.
The next data set has as its system human hepatocytes. Kind of data set: In vitro metabolic stability in human hepatocytes. The following applies: 1 μM, 37° C., 0-60 min.
In data set [5] the test system is 3D in vitro model of blood brain barrier. Kind of data set: Permeation in a 3D in vitro model of blood-brain barrier. The following applies: 500 nM, 2 h.

Positions of bridges follow the written chain, without caps; N, C: chain ends. Non-standard residues stand in square brackets, D forms with d. Residues, ends and D or L forms follow the SMILES beside them. No end group written: not given here.

Regarding “KEACGKCTE ([dK][dE][dA][dC]G[dK][dC][dT][dE]; disulfide 4-7) [Compound 16]”, the “potency of retro-inverso peptides relative to their parent compounds and to full-length CDNF protein” value in data set [1] is on record as “comparable”.
For the compound “KEACARCEE ([dK][dE][dA][dC][dA][dR][dC][dE][dE]; disulfide 4-7) [Compound 14]”, in data set [2], the dissociation constant Kd was 0.68 µM.
Consider `C[C@@H](NC(=O)[C@@H](CCC(=O)O)NC(=O)[C@H](N)CCCCN)C(=O)N[C@@H]1CSSC[C@H](C(=O)N[C@H](CCC(=O)O)C(=O)N[C@H](CCC(=O)O)C(=O)O)NC(=O)[C@@H](CCCNC(=N)N)NC(=O)[C@@H](C)NC1=O` [Compound 14, KEACARCEE] (H-[dK][dE][dA][dC][dA][dR][dC][dE][dE]-OH; disulfide 4-7; N-terminus and C-terminus assumed), for which the “stability in rat plasma as compared to parent compound” value in data set [3] was “significantly improved stability”. Besides, in data set [4], the AUC(0-inf) is 7500 ng·h/mL, the MRT is 19.2 min, the volume of distribution (Vd) is 0.21 L/kg and the half-life was found to be 18.4 min. The clearance in data set [4] worked out at 11.4 mL/min/kg. Moreover, in the data set with rat hepatocytes, the “stability in rat hepatocytes as compared to parent compound” value is “significantly improved stability”.
EECRACAE (disulfide 3-6) [Compound 17]: in data set [2], the Kd was determined as 0.3 µM.
The same measure, in the same setting: for “GEECRACAEKT (disulfide 4-7) [Compound 5]” the value was 3.21 µM.
As for `C[C@H](O)[C@@H](N)C(=O)N[C@H](CCCCN)C(=O)N[C@H](CCC(=O)O)C(=O)N[C@H](C)C(=O)N[C@@H]1CSSC[C@H](C(=O)N[C@H](CCC(=O)O)C(=O)N[C@H](CCC(=O)O)C(=O)NCC(=O)O)NC(=O)[C@@H](CCCNC(=N)N)NC(=O)[C@@H](C)NC1=O` [Compound 6, TKEACARCEEG], the “potency of retro-inverso peptides relative to their parent compounds and to full-length CDNF protein” value in data set [1] was “comparable”. In data set [4], this compound gave an area under the curve AUC(0-inf) of 15500 ng·h/mL, a mean residence time MRT of 29.4 min, a Vd of 0.16 L/kg and a half-life of 24.5 min. Also, the clearance in data set [4] was determined as 5.69 mL/min/kg. Further, in data set [2], the Kd worked out at 3.86 µM. Further, the “stability in rat hepatocytes as compared to parent compound” value in the data set on rat hepatocytes is “significantly improved stability”. Further, the “stability in human hepatocytes as compared to parent compound” value in the data set with human hepatocytes was “significantly improved stability”. Further, the “ability to pass through the in vitro blood-brain barrier as compared to parent compound” value in data set [5] is “improved ability to pass”.
As to “EACARCEE ([dE][dA][dC][dA][dR][dC][dE][dE]; disulfide 3-6) [Compound 18] [listing 1 of 2 here]”, the “potency of retro-inverso peptides relative to their parent compounds and to full-length CDNF protein” value in data set [1] is “comparable”.
In the case of “EACARCEE ([dE][dA][dC][dA][dR][dC][dE][dE]; disulfide 3-6) [Compound 18] [listing 2 of 2 here]”, the Kd in data set [2] amounted to 1.23 µM.
The same measure, in the same setting: for “SKEACGGKCTEG ([dS][dK][dE][dA][dC]GG[dK][dC][dT][dE]G; disulfide 5-9) [Compound 12]” the value was 6.2 µM.
“KEACGKCTEGWDDLIKKLEKVRL ([dK][dE][dA][dC]G[dK][dC][dT][dE]G[dW][dD][dD][dL][dI][dK][dK][dL][dE][dK][dV][dR][dL]; disulfide 4-7) [Compound 4]”: the “potency of retro-inverso peptides relative to their parent compounds and to full-length CDNF protein” value in data set [1] is listed as “comparable”. For the same compound, the “stability in rat hepatocytes as compared to parent compound” value in the data set with rat hepatocytes is “significantly improved stability”. Also, in the data set on human hepatocytes, the “stability in human hepatocytes as compared to parent compound” value is listed as “significantly improved stability”. Also, the “ability to pass through the in vitro blood-brain barrier as compared to parent compound” value in data set [5] is listed as “improved ability to pass”.
For the compound ETCKGCAE (disulfide 3-6) [Compound 19], the equilibrium dissociation constant (Kd) in data set [2] was determined as 14.3 µM.
For “TKEACAGRCEEG ([dT][dK][dE][dA][dC][dA]G[dR][dC][dE][dE]G; disulfide 5-9) [Compound 10]”, in data set [1], the “potency of retro-inverso peptides relative to their parent compounds and to full-length CDNF protein” value was “comparable”.
In the case of “CDNF: full-length cerebral dopamine neurotrophic factor protein (rhCDNF), unconventional neurotrophic factor”, in data set [1], the “alpha-synuclein (aSyn) aggregates / inclusions in TH-positive neurons” value is listed as “reducing accumulation”; the “protection of TH-positive neurons, their neurites and synapses from MPP+ toxicity” value is “neuroprotective”.
`C[C@H](O)[C@@H](NC(=O)[C@H]1CSSC[C@@H](NC(=O)[C@@H](C)NC(=O)[C@@H](CCC(=O)O)NC(=O)[C@@H](CCCCN)NC(=O)[C@H](N)CO)C(=O)NCC(=O)NCC(=O)N[C@H](CCCCN)C(=O)N1)C(=O)N[C@H](CCC(=O)O)C(=O)NCC(=O)O` [Compound 12, SKEACGGKCTEG] (H-[dS][dK][dE][dA][dC]GG[dK][dC][dT][dE]G-OH; disulfide 5-9; N-terminus and C-terminus assumed): in data set [4], the AUC(0-inf) was 4310 ng·h/mL, the MRT is 22.9 min, the Vd was 0.45 L/kg and the half-life was found to be 19.7 min. In addition, the clearance in data set [4] came out at 19.5 mL/min/kg. Besides, the “ability to pass through the in vitro blood-brain barrier as compared to parent compound” value in data set [5] is given as “improved ability to pass”.
For the compound KEACARCEEGWSHLIQKLEAVRM [Compound 2], the “potency of retro-inverso peptides relative to their parent compounds and to full-length CDNF protein” value in data set [1] is recorded as “comparable”.
